Measurements as given in patent publication US20170015649A1, “N-Thio-anthranilamid compounds and their use as pesticides” (BASF SE, priority 2005, published 2017).
Like-named read-outs stand apart in the source and are kept apart here.

How the values were obtained:
[1] = test system: Vetch Aphid (Megoura viciae); assay: Activity against vetch aphid, bean leaf disks; format: in vivo; settings: foliar, 144 h
Method: Bean leaf disks were placed into microtiterplates filled with 0.8% agar-agar and 2.5 ppm OPUS™. The leaf disks were sprayed with 2.5 μl of the test solution and 5 to 8 adult aphids were placed into the microtiterplates which were then closed and kept at 22-24° C. and 35-45% under fluorescent light for 6 days. Mortality was assessed on the basis of vital, reproduced aphids. Tests were replicated 2 times.

[2] = test system: Mediterranean Fruitfly (Ceratitis capitata); assay: Activity against Mediterranean fruitfly, eggs in microtiterplates; format: in vivo; settings: 144 h, eggs sprayed with 5 μl test solution, 6 days
Method: 50 to 80 eggs were placed into microtiterplates filled with 0.5% agar-agar and 14% diet in water. […] Mortality was assessed on the basis of the agility of the hatched larvae. Tests were replicated 2 times.

[3] = test system: Tobacco Budworm (Heliothis virescens); assay: whole plant or invertebrate; settings: 144 h
[4] = test system: Diamond Back Moth (Plutella xylostella); assay: Activity against diamond back moth, cabbage leaf disk dip; format: in vivo; settings: foliar
Method: The active compounds were formulated in 50:50 acetone:water and 0.1% (vol/vol) Alkamuls EL 620 surfactant. A 6 cm leaf disk of cabbage leaves was dipped in the test solution for 3 seconds and allowed to air dry in a Petri plate lined with moist filter paper. The leaf disk was inoculated with 10 third instar larvae and kept at 25-27° C. and 50-60% humidity for 3 days. Mortality was assessed after 72 h of treatment.

[5] = test system: Boll Weevil (Anthonomus grandis); assay: Activity against boll weevil, eggs in microtiterplates; format: in vivo; settings: eggs sprayed with 20 μl test solution, 3 to 5 days
Method: 10 to 15 eggs were placed into microtiterplates filled with 2% agar-agar in water and 300 ppm formaline. […] Mortality was assessed on the basis of the remaining unhatched eggs or larvae on the agar surface and/or quantity and depth of the digging channels caused by the hatched larvae. Tests were replicated 2 times.

[6] = test system: Southern Armyworm (Spodoptera eridania), 2nd Instar Larvae; assay: whole plant or invertebrate; format: in vivo; settings: in Phaseolus lunatus, foliar, 120 h
Method: The active compounds were formulated for testing the activity against insects and arachnids as a 10.000 ppm solution in a mixture of 35% acetone and water, which was diluted with water, if needed.
A Sieva lima bean leaf was dipped in the test solution and allowed to dry. The leaf was then placed in a petri dish containing a filter paper on the bottom and ten 2nd instar caterpillars. At 5 days, observations are made of mortality and reduced feeding.

[7] = test system: Yellowfever Mosquito (Aedes aegyptii) Larvae; assay: Activity against mosquito larvae via water treatment; format: in vivo; settings: read-out: mortality of yellowfever mosquito
Method: 11. Activity Against Yellowfever Mosquito (Aedes aegyptii), House Mosquito (Culex quinquefasciatus) and Malaria Mosquito (Anopheles albimanus) Larvae Via Water Treatment
Well plates were used as test arenas. The active ingredient was dissolved in acetone and diluted with water to obtain the concentrations needed. The final solutions containing appr. 1% acetone were placed into each well. Approximately 10 mosquito larvae (4th-instars) in 1 ml water were added to each well. Larvae were fed one drop of liver powder each day. The dishes were covered and maintained at 22° C. Mortality was recorded daily and dead larvae and live or dead pupae were removed daily. At the end of the test remaining live larvae were recorded and percent mortality was calculated.

[8] = test system: Silverleaf Whitefly (Bemisia argentifolii); assay: Activity against silverleaf whitefly, cotton cotyledon dip; format: in vivo; settings: 72 h, cotyledons dipped, adults, 3 days after treatment
Method: (§1) The active compounds were formulated in 50:50 acetone:water and 100 ppm Kinetic™ surfactant.
Selected cotton plants were grown to the cotyledon state (one plant per pot). The cotyledons were dipped into the test solution to provide complete coverage of the foliage and placed in a well-vented area to dry. Each pot with treated seedling was placed in a plastic cup and 10 to 12 whitefly adults (approximately 3-5 day old) were introduced. The insects were collected using an aspirator and an 0.6 cm, non-toxic Tygon™ tubing (R-3603) connected to a barrier pipette tip. The tip, containing the collected insects, was then gently inserted into the soil containing the treated plant, allowing insects to crawl out of the tip to reach the foliage for feeding. The cups were covered with a reusable screened lid (150 micron mesh polyester screen PeCap from Tetko Inc). Test plants were maintained in the holding room at about 25° C. and 20-40% relative humidity for 3 days avoiding direct exposure to the fluorescent light (24 hour photoperiod) to prevent trapping of heat inside the cup. Mortality was assessed 3 days after treatment of the plants.

[9] = test system: Cotton Aphid (Aphis gossypii); assay: Activity against cotton aphid, cotton cotyledon dip; format: in vivo; settings: 120 h, cotyledons dipped, after 5 days
Text: as §1
Cotton plants at the cotyledon stage (one plant per pot) were infested by placing a heavily infested leaf from the main colony on top of each cotyledon. The aphids were allowed to transfer to the host plant overnight, and the leaf used to transfer the aphids was removed. The cotyledons were dipped in the test solution and allowed to dry. After 5 days, mortality counts were made.

[10] = 2500 ppm, leaf disks sprayed with 2.5 μl, 6 days, compared to 0% mortality of untreated controls, read-out: mortality
[11] = 300 ppm, leaf disk dipped, third instar larvae, after 72 h, read-out: mortality
[12] = 300 ppm, leaf dipped, at 5 days, read-out: mortality

melting point [°C]	Compound	mortality at 2500 ppm [1, 10] [%]	mortality at 2500 ppm [2] [%]	mortality at 2500 ppm [3] [%]	mortality at 300 ppm [4, 11] [%]	mortality at 2500 ppm [5] [%]	mortality at 300 ppm [6] [%]	mortality at 300 ppm ([4]; 72 h) [%]	mortality at 10 ppm [7] [%]	mortality at 300 ppm [6, 12] [%]	mortality at 300 ppm [8] [%]	mortality at 300 ppm [9] [%]	mortality at 2500 ppm [1] [%]
–	Cc1cc(C#N)cc(C(=O)N=S(C)C)c1NC(=O)c1cc(C(F)(F)F)nn1-c1ncccc1Cl [I.3-55]	> 75	> 75	> 75	> 75	> 75	–	–	–	–	–	–	–
–	Cc1cc(Cl)cc(C(=O)NS(=O)(=O)N(C)C)c1NC(=O)c1cc(Br)nn1-c1ncccc1Cl [I.1-9]	–	–	–	–	–	> 75	> 75	–	–	–	–	–
191	CCN(CC)S(=O)(=O)NC(=O)c1cccc(C)c1NC(=O)c1cc(Br)nn1-c1ncccc1Cl	–	–	–	–	–	–	–	–	–	–	–	–
–	CCN(CC)S(=O)(=O)NC(=O)c1cc(Cl)cc(C)c1NC(=O)c1cc(C(F)(F)F)nn1-c1ncccc1Cl [I.1-37]	–	–	–	–	–	–	–	> 70	–	–	–	–
–	CCS(C)=NC(=O)c1cc(I)cc(C)c1NC(=O)c1cc(Br)nn1-c1ncccc1Cl (stereo not shown) [I.3-27]	> 75	> 75	> 75	> 75	> 75	–	–	–	> 75	> 90	> 50	–
–	CCN(C)S(=O)(=O)NC(=O)c1cc(Cl)cc(C)c1NC(=O)c1cc(Br)nn1-c1ncccc1Cl [I.1-7]	–	–	–	–	–	> 75	> 75	–	–	–	–	–
–	CCS(CC)=NC(=O)c1cc(Cl)cc(C)c1NC(=O)c1cc(Br)nn1-c1ncccc1Cl [I.3-3]	> 75	–	> 75	–	> 75	–	–	–	> 75	> 90	> 50	–
–	CCN(C)S(=O)(=O)NC(=O)c1cc(Cl)cc(C)c1NC(=O)c1cc(C(F)(F)F)nn1-c1ncccc1Cl [I.1-45]	–	–	–	–	–	> 75	> 75	–	–	–	–	–
–	CCN(CC)S(=O)(=O)NC(=O)c1cccc(C)c1NC(=O)c1cc(C(F)(F)F)nn1-c1ncccc1Cl [I.1-53]	–	–	> 75	–	–	> 75	–	–	–	–	–	> 75
–	CCS(C)=NC(=O)c1cc(Cl)cc(C)c1NC(=O)c1cc(C(F)(F)F)nn1-c1ncccc1Cl (stereo not shown) [I.3-28]	> 75	> 75	> 75	> 75	> 75	–	–	–	> 75	> 90	> 50	–
–	Cc1cc(I)cc(C(=O)N=S(C)C)c1NC(=O)c1cc(Br)nn1-c1ncccc1Cl [I.3-22]	> 75	> 75	> 75	> 75	> 75	–	–	–	> 75	> 90	> 50	–
–	CCS(C)=NC(=O)c1cccc(C)c1NC(=O)c1cc(C(F)(F)F)nn1-c1ncccc1Cl (stereo not shown) [I.3-29]	> 75	> 75	> 75	> 75	> 75	–	–	–	> 75	–	> 50	–
–	CCS(C)=NC(=O)c1cccc(C)c1NC(=O)c1cc(Br)nn1-c1ncccc1Cl (stereo not shown) [I.3-26]	> 75	> 75	> 75	> 75	> 75	–	–	–	> 75	> 90	> 50	–
